Values of other authors in US8333997B2, “Compositions for sustained release of nitric oxide, methods of preparing same and uses thereof” (priority 2006, dated 2012).

Experiments:
S. aureus = conditions: dose-response study on S. aureus
[1] = tested on: Methicillin sensitive and Methicillin resistant species; conditions: against Methicillin sensitive and Methicillin resistant species

For `[N]=O` [NO, nitric oxide], the “concentration at which NO exhibits potent antimicrobial properties” value (S. aureus) is listed as “above 160 ppm”.

For `C/C(=C\C(=O)OCCCCCCCCC(=O)O)C[C@@H]1OC[C@H](C[C@@H]2O[C@H]2[C@@H](C)[C@H](C)O)[C@@H](O)[C@H]1O` [Mupirocin], the efficacious concentration ranges [1] is listed as 25 to 256 mg/L.
